Measured values published in patent publication US20240226107A1, “UBIQUITIN-SPECIFIC PROTEASE 1 (USP1) INHIBITOR” (SIMCERE ZAIMING PHARMACEUTICAL CO., LTD., priority 2021, published 2024).

Tests used:
[1] = test system: MDA-MB-436 cells;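 further: MDA-MB-436 proliferation over 7 days with compound, viability read as ATP luminescence (CellTiter-Glo), inhibition relative to DMSO-only wells, day 0 signal as background, GI50 from four-parameter fit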
[2] = molecular target: USP1 (Recombinant Human His6-USP1/His6-UAF1 Complex Protein) (Homo sapiens (Human), UniProt O94782); assay: In vitro activity assay for USP1 (Ub-CHOP2-Reporter deubiquitination assay); format: biochemical; settings: 0.5 h incubation at room temperature, read-out: In vitro inhibitory activity of USP1 IC50
Chain of USP1 (Recombinant Human His6-USP1/His6-UAF1 Complex Protein) (O94782 whole entry): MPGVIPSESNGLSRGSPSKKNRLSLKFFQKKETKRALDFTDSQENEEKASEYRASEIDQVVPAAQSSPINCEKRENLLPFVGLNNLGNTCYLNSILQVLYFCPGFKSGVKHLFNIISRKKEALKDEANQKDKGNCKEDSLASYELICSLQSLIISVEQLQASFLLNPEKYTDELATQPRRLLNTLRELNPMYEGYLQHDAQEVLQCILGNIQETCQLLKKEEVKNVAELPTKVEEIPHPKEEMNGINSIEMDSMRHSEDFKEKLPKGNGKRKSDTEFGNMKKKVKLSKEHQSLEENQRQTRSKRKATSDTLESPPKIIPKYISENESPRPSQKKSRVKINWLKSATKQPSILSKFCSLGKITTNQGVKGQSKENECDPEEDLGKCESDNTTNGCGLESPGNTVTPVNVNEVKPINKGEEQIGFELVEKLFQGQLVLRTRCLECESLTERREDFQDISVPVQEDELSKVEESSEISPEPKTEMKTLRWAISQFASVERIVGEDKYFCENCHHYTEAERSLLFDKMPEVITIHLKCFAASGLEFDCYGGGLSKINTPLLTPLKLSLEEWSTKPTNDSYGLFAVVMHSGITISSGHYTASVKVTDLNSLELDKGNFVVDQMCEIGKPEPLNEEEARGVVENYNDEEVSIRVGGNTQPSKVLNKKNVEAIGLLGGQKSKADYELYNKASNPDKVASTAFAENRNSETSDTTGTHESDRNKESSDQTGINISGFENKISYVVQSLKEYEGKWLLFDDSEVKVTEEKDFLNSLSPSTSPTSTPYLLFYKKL
Chain of USP1 (Recombinant Human His6-USP1/His6-UAF1 Complex Protein) (Q8TAF3 whole entry partner): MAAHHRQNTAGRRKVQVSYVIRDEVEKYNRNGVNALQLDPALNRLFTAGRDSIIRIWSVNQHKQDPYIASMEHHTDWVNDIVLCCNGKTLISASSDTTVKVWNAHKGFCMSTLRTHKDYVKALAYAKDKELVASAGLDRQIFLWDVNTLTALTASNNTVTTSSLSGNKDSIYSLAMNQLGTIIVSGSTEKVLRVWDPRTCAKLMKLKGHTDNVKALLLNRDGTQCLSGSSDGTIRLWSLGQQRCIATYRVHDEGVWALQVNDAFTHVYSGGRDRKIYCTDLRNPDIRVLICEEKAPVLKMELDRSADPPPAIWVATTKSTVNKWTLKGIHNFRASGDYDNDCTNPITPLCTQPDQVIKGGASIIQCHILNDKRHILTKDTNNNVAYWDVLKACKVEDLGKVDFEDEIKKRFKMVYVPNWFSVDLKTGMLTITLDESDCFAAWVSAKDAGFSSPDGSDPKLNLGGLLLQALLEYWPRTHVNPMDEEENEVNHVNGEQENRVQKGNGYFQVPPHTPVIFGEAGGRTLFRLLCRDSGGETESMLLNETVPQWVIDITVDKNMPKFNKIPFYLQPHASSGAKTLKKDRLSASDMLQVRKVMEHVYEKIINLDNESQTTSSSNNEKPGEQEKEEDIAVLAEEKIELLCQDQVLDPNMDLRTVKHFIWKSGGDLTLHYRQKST
Method: The assay kit (Ub-CHOP2-Reporter Deubiquitination Assay Kit) was purchased from Lifesensors, with Cat. No. of PR1101. The assay kit was subpackaged and stored at −80° C.
Each compound to be tested was dissolved with DMSO to 10 mM. The compound and pure DMSO (with a total volume of 50 nL) were loaded to each well of the 384-well plate by using an ECHO instrument to obtain gradient-diluted sample concentrations at different ratios. The enzyme was diluted with a freshly prepared reaction solution (20 mM Tris-HCl (pH 8.0), 2 mM CaCl2, 2 mM β-mercaptoethanol, 0.05% CHAPS, and ddH2O). To each well, 5 μL of diluted enzyme reaction solution was added, then the plate was centrifuged and oscillated to mix the enzyme and the compound, and the mixture was centrifuged again and placed on ice. The kit reporter system and the substrate were diluted with the reaction solution, then 5 μL of diluted liquid was added to each well, and mixed by centrifugation. The mixture was incubated at room temperature for 0.5 h. […] The inhibitory activity (IC50 values) of the compound on enzyme activity was calculated by using a four-parameter Logistic Model. […] A, B, C, and D are four parameters.

Structure (SMILES)	GI50 [1]	IC50 [2]
CC(C)c1ncccc1-c1ncc2c(n1)N(Cc1ccc(-c3nc(C(F)(F)F)cn3C)cc1)CCO2 [Compound 1, 2-(2-isopropylpyridin-3-yl)-8-(4-(1-methyl-4-(trifluoromethyl)-1H-imidazol-2-yl)benzyl)-7,8-dihydro-6H-pyrimido[5,4-b][1,4]oxazine]	22.9 nM	18 nM
COc1ncnc(C2CC2)c1-c1ncc2c(n1)N(Cc1ccc(-c3nc(C(F)(F)F)cn3C)cc1)CCO2 [Compound 2, 2-(4-cyclopropyl-6-methoxypyrimidin-5-yl)-8-(4-(1-methyl-4-(trifluoromethyl)-1H-imidazol-2-yl)benzyl)-7,8-dihydro-6H-pyrimido[5,4-b][1,4]oxazine]	20.9 nM	–
COc1ncnc(C2CC2)c1-c1cc2c(cn1)OCCN2Cc1ccc(-c2nc(C(F)(F)F)cn2C)cc1 [Compound 3, 7-(4-cyclopropyl-6-methoxypyrimidin-5-yl)-1-(4-(1-methyl-4-(trifluoromethyl)-1H-imidazol-2-yl)benzyl)-2,3-dihydro-1H-pyrido[3,4-b][1,4]oxazine]	47.3 nM	21.3 nM
CC(C)c1ncccc1-c1ncc2c(n1)N(Cc1ccc(-c3nc(C(F)(F)F)cn3C)cc1)CC(=O)N2 [Compound 4, 2-(2-isopropylpyridin-3-yl)-8-(4-(1-methyl-4-(trifluoromethyl)-1H-imidazol-2-yl)benzyl)-7,8-dihydropteridin-6(5H)-one]	–	43.3 nM
COc1ncnc(C2CC2)c1-c1ncc2c(n1)N(Cc1ccc(-c3nc(C(F)(F)F)cn3C)cc1)CC(=O)N2 [Compound 5, 2-(4-cyclopropyl-6-methoxypyrimidin-5-yl)-8-(4-(1-methyl-4-(trifluoromethyl)-1H-imidazol-2-yl)benzyl)-7,8-dihydropteridin-6(5H)-one]	152 nM	43.7 nM
COc1ncnc(C2CC2)c1-c1ncc2c(n1)N(Cc1ccc(-c3nc(C(F)(F)F)cn3C)cc1)C(=O)CO2 [Compound 6, 2-(4-cyclopropyl-6-methoxypyrimidin-5-yl)-8-(4-(1-methyl-4-(trifluoromethyl)-1H-imidazol-2-yl)benzyl)-6H-pyrimido [5,4-b][1,4]oxazin-7(8H)-one]	420 nM	–
COc1ncnc(C2CC2)c1-c1ncc2c(n1)N(Cc1ccc(-c3nc(C(F)(F)F)cn3C)cc1F)CCO2 [Compound 9, 2-(4-cyclopropyl-6-methoxypyrimidin-5-yl)-8-(2-fluoro-4-(1-methyl-4-(trifluoromethyl)-1H-imidazol-2-yl)benzyl)-7,8-dihydro-6H-pyrimido[5,4-b][1,4]oxazine]	50.4 nM	–
COc1ncnc(C2CC2)c1-c1ncc2c(n1)N(Cc1c(F)cc(-c3nc(C(F)(F)F)cn3C)cc1F)CCO2 [Compound 10, 2-(4-cyclopropyl-6-methoxypyrimidin-5-yl)-8-(2,6-difluoro-4-(1-methyl-4-(trifluoromethyl)-1H-imidazol-2-yl)benzyl)-7,8-dihydro-6H-pyrimido[5,4-b][1,4]oxazine]	507 nM	106 nM
COc1ncnc(C2CC2)c1-c1ncc2c(n1)N(Cc1ccc(-c3nc(C(F)(F)F)cn3C)cc1)CC(C)O2 (stereo not drawn) [Compound 15, 2-(4-cyclopropyl-6-methoxypyrimidin-5-yl)-6-methyl-8-(4-(1-methyl-4-(trifluoromethyl)-1H-imidazol-2-yl)benzyl)-7,8-dihydro-6H-pyrimido[5,4-b][1,4]oxazine]	20.1 nM	34 nM
COc1ncnc(C2CC2)c1-c1ncc2c(n1)N(Cc1ccc(-c3nc(C(F)(F)F)cn3C)cc1)C(=O)C(C)O2 (stereo not drawn) [Compound 21, 2-(4-cyclopropyl-6-methoxypyrimidin-5-yl)-6-methyl-8-(4-(1-methyl-4-(trifluoromethyl)-1H-imidazol-2-yl)benzyl)-6H-pyrimido[5,4-b][1,4]oxazin-7(8H)-one]	97.5 nM	16.7 nM
COc1ncnc(C2CC2)c1-c1ncc2c(n1)N(Cc1ccc(-c3nc(C(F)(F)F)cn3C)c(F)c1)CCO2 [Compound 32, 2-(4-cyclopropyl-6-methoxypyrimidin-5-yl)-8-(3-fluoro-4-(1-methyl-4-(trifluoromethyl)-1H-imidazol-2-yl)benzyl)-7,8-dihydro-6H-pyrimido[5,4-b][1,4]oxazine]	11.4 nM	–
COc1ncnc(C2CC2)c1-c1ncc2c(n1)N(Cc1ccc3c(c1)CCCn1cc(C(F)(F)F)nc1-3)CC(=O)N2C(C)C [Compound 47, 2-(4-cyclopropyl-6-methoxypyrimidin-5-yl)-5-isopropyl-8-((2-(trifluoromethyl)-6,7-dihydro-5H-benzo[c]imidazo[1,2-a]azepin-9-yl)methyl)-7,8-dihydropteridin-6(5H)-one]	–	45.9 nM
COc1ncnc(C2CC2)c1-c1ncc2c(n1)N(Cc1ccc3c(c1)CCCn1cc(C(F)(F)F)nc1-3)CC(=O)N2C1CC1 [Compound 48, 5-cyclopropyl-2-(4-cyclopropyl-6-methoxypyrimidin-5-yl)-8-((2-(trifluoromethyl)-6,7-dihydro-5H-benzo[c]imidazo[1,2-a]azepin-9-yl)methyl)-7,8-dihydropteridin-6-(5H)-one]	–	26.1 nM
COc1ncnc(C2CC2)c1-c1ncc2c(n1)N(Cc1ccc(-c3nc(C(F)(F)F)cn3C)c(F)c1)C(=O)OC2(C)C [Compound 49, 7-(4-cyclopropyl-6-methoxypyrimidin-5-yl)-4,4-dimethyl-1-(3-fluoro-4-(1-methyl-4-(trifluoromethyl)-1H-imidazol-2-yl)benzyl)-1,4-dihydro-2H-pyrimido[4,5-d][1,3]oxazin-2-one]	–	33.2 nM
COc1ncnc(C2CC2)c1-c1ncc2c(n1)N(Cc1ccc(-c3nc(C(F)(F)F)cn3C)c(F)c1)C(=O)OC21CC1 [Compound 51, 7′-(4-cyclopropyl-6-methoxypyrimidin-5-yl)-1′-(3-fluoro-4-(1-methyl-4-(trifluoromethyl)-1H-imidazol-2-yl)benzyl)spiro[cyclopropane-1,4′-pyrimido[4,5-d][1,3]oxazine]-2′(1′H)-one]	–	13.8 nM
COc1ncnc(C2CC2)c1-c1ncc2c(n1)N(Cc1ccc(-n3nc(C(F)(F)F)cc3C)cc1)C(=O)OC21CC1 [Compound 53, 7′-(4-cyclopropyl-6-methoxypyrimidin-5-yl)-1′-(4-(5-methyl-3-(trifluoromethyl)-1H-pyrazol-1-yl)benzyl)spiro[cyclopropane-1,4′-pyrimido[4,5-d][1,3]oxazine]-2′(1′H)-one]	–	8.9 nM
COc1ncnc(C2CC2)c1-c1ncc2c(n1)N(Cc1ccc(-n3nc(C(F)(F)F)cc3C)cc1)C(=O)OC21COC1 [Compound 54, 7′-(4-cyclopropyl-6-methoxypyrimidin-5-yl)-1′-(4-(5-methyl-3-(trifluoromethyl)-1H-pyrazol-1-yl)benzyl)spiro[oxetane-3,4′-pyrimido[4,5-d][1,3]oxazine]-2′(1′H)-one]	–	23.2 nM
COc1ncnc(C2CC2)c1-c1ncc2c(n1)N(Cc1ccc(-n3nc(C(F)(F)F)cc3C)cc1)C(=O)OC21CCC1 [Compound 55, 7′-(4-cyclopropyl-6-methoxypyrimidin-5-yl)-1′-(4-(5-methyl-3-(trifluoromethyl)-1H-pyrazol-1-yl)benzyl)spiro[cyclobutane-1,4′-pyrimido[4,5-d][1,3]oxazin]-2′(1′H)-one]	–	8.7 nM
C#CC1(C)OC(=O)N(Cc2ccc(-c3nc(C(F)(F)F)cn3C)c(F)c2)c2nc(-c3c(OC)ncnc3C3CC3)ncc21 (stereo not drawn) [Compound 59, 7-(4-cyclopropyl-6-methoxypyrimidin-5-yl)-4-ethynyl-1-(3-fluoro-4-(1-methyl-4-(trifluoromethyl)-1H-imidazol-2-yl)benzyl)-4-methyl-1,4-dihydro-2H-pyrimido[4,5-d][1,3]oxazin-2-one]	–	13.5 nM
COc1ncnc(C2CC2)c1-c1ncc2c(n1)N(Cc1ccc(-c3nc(C(F)(F)F)cn3C)c(C(F)(F)F)c1)CCO2 [Compound 64]	–	22.7 nM
COc1ncnc(C2CC2)c1-c1ncc2c(n1)N(Cc1ccc(-n3nc(C(F)(F)F)cc3C)cc1)CC(=O)N2C1CC1 [Compound 72, 2-(4-cyclopropyl-6-methoxypyrimidin-5-yl)-8-(4-(5-methyl-3-(trifluoromethyl)-1H-pyrazol-1-yl)benzyl)-5-cyclopropyl-7,8-dihydropteridin-6(5H)-one]	–	38 nM
Cc1cc(C(F)(F)F)nn1-c1ccc(CN2C(=O)OC(C)(C)c3cnc(-c4c(OC(F)F)ncnc4C4CC4)nc32)cc1 [Compound 75, 7-(4-cyclopropyl-6-difluoromethoxypyrimidin-5-yl)-4,4-dimethyl-1-(4-(5-methyl-3-(trifluoromethyl)-1H-pyrazol-1-yl)benzyl)-1,4-dihydro-2H-pyrimido[4,5-d][1,3]oxazin-2-one]	–	14.8 nM
COc1ncnc(C2CC2)c1-c1ncc2c(n1)N(Cc1ccc(-c3nc(C(F)(F)F)cn3C)c(F)c1)N(C)C(=O)N2C [Compound 84, 7-(4-cyclopropyl-6-methoxypyrimidin-5-yl)-1-(3-fluoro-4-(1-methyl-4-(trifluoromethyl)-1H-imidazol-2-yl)benzyl)-2,4-dimethyl-1,4-dihydropyrimido[5,4-e][1,2,4]triazin-3(2H)-one]	–	69.7 nM
Cc1cnc(-c2ccccc2C(C)C)nc1NCc1ccc(-n2ccnn2)cc1 [ML323, reference compound]	1820 nM	–
